From patent US20120196892A1, “NOVEL CASPASE-2 INHIBITORS” (CHIESI FARMACEUTICI S.p.A., priority 2011, published 2012)
pIC50: −log10 of the molar value.

Experiments:
[1] = molecular target: T1, human recombinant caspase-2 (Homo sapiens, UniProt P42575); assay: in vitro caspase-2 inhibition activity (Ac-VDVAD-AMC fluorogenic substrate cleavage); type: biochemical; conditions: for pIC50: 30 minutes pre-incubation with inhibitors 0.001 to 2 μM, 200 μM Ac-VDVAD-AMC, read after 2 hours at 37° C., mean of three independent runs, read-out: IC50 (concentration which inhibits 50% of caspase activity); for caspase-2 inhibition activity (in words), comparative compounds: compounds used for comparative purposes, structurally related to TRP601
T1 construct: purchased BIOMOL, Plymouth, Pa., USA
T1 sequence (P42575 170-325 limits assumed): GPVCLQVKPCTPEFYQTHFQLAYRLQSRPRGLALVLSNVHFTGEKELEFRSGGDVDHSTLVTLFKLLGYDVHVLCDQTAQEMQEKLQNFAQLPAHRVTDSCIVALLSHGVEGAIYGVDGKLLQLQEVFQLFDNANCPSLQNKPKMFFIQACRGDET
T1 sequence (P42575 348-452 limits assumed): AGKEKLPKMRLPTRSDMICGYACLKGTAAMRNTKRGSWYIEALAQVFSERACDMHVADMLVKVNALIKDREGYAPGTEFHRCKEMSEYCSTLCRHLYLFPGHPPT
Method: The in vitro caspase-2 inhibition activity of 2-quinolinylcarbonyl-(S)-Valinyl-(S)-Aspartyl (methyl ester)-(S)-Valinyl-(S)-Alanyl-(R,S)-Aspartyl (methyl ester) 2,3,5,6-tetrafluorophenyl ester (TRP 701) in comparison to other compounds was evaluated according to the following protocol. Samples of human recombinant caspase-2 (25-50U, BIOMOL, Plymouth, Pa., USA) were pre-incubated for 30 minutes with inhibitors (0.001 to 2 μM) in final 100 μl final assay buffer (50 mM HEPES, pH 7.4, 100 mM NaCI, 0.1% CHAPS, 10 mM DTT, 1 mM EDTA, 10% glycerol) and then mixed with 200 μM of the fluorogenic caspase substrates (BIOMOL) Ac-VDVAD-AMC. An IC50 value corresponding to the concentration which inhibis 50% of caspase activity was determined from the dose-response sigmoid curve using the steady-state fluorescence approach. The cleavage of AMC-based substrate by human recombinant caspase-2 was measured after 2 hours at 37° C. on a fluorescence microplate reader by monitoring emission at 510 nm upon excitation at 405 nm.
Curves are the mean of three independent runs.

[2] = molecular target: T1, human recombinant caspase-2; conditions: disclosed in WO 2005/105829; cited from earlier work

COC(=O)CC(NC(=O)[C@H](C)NC(=O)[C@@H](NC(=O)[C@H](CC(=O)OC)NC(=O)[C@@H](NC(=O)c1ccc2ccccc2n1)C(C)C)C(C)C)C(=O)COc1c(F)cccc1F (mixture of isomers) [TRP 601, 5-(2,6-difluoro-phenoxy)-3(R,S)-{2(S)-[2(S)-(3-methoxycarbonyl-2(S)-{3-methyl-2(S)-[(quinoline-2-carbonyl)-amino]butyrylamino}-propionylamino)-3-methyl-butyrylamino]-propionylamino}-4-oxo-pentanoic acid methyl ester]
pIC50 [1]: 7.05 to 7.22
caspase-2 selectivity (in words), background statement [2]: selective caspase-2 inhibitor

COC(=O)CC(NC(=O)[C@H](C)NC(=O)[C@@H](NC(=O)[C@H](CC(=O)OC)NC(=O)[C@@H](NC(=O)c1ccc2ccccc2n1)C(C)C)C(C)C)C(=O)COc1c(F)c(F)cc(F)c1F (mixture of isomers) [TRP 701, 5-(2,3,5,6-tetrafluoro-phenoxy)-3(R,S)-{2(S)-[2(S)-(3-methoxycarbonyl-2(S)-{3-methyl-2(S)-[(quinoline-2-carbonyl)-amino]-butyrylamino}-propionylamino)-3-methyl-butyrylamino]-propionylamino}-4-oxo-pentanoic acid methyl ester]
caspase-2 selectivity (in words) [1]: selective caspase-2 inhibitor
pIC50 [1]: 7.05 to 7.22

CC(C)[C@H](NC(=O)c1ccc2ccccc2n1)C(=O)O [M3, 2-quinolinylcarbonyl-S-Valine]
caspase-2 inhibition activity (in words), comparative compounds [1]: inactive

quinoline-2-carbonyl-(S)-Val-(S)-Asp(OMe)-(S)-Val-(S)-Ala-(R,S)-Ala((R,S)-CH2OC6H3(2,6-F2)) [TRP 600]
caspase-2 inhibition activity (in words), comparative compounds [1]: inactive
